Reference: article PMC11020070, “Discovery of Protease-Activated Receptor 4 (PAR4)-Tethered Ligand Antagonists Using Ultralarge Virtual Screening” (ACS Pharmacology & Translational Science, 2024)
“Also recorded” adds a separate entry of the source.

Tests used:
PAR4 [1] = molecular target: T1, PAR4 (Homo sapiens, UniProt Q96RI0); assay: PAR4 component of α-thrombin activation (α-thrombin + vorapaxar) in human platelets; assay type: cell-based; parameters: endogenous in cells; host or cells: platelets; conditions: for IC50: α-thrombin + vorapaxar, read-out: PAR4 IC50 (Figure 6D)
T1 sequence (Q96RI0 18-385): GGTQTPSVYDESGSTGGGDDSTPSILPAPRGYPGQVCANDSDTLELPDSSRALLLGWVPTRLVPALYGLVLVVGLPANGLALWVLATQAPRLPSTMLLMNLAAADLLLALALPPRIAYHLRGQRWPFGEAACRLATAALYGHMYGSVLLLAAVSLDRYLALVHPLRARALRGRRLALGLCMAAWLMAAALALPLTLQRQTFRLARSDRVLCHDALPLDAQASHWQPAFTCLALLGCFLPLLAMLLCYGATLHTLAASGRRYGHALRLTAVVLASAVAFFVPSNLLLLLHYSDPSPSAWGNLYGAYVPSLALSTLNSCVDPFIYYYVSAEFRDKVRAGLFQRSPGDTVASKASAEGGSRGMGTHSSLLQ
Description: Figure 5 (A) Off-target controls: % of vehicle control for γ-thrombin (100 nM), PAR4 component of α-thrombin (5 nM α-thrombin +1 μM vorapaxar), PAR4 agonist peptide 200 μM AYPGKF, 200 μM PAR1 agonist peptide SFLLRN, and GPVI agonist convulxin 3.16 nM.
(§1) Figure 6 (A) Distribution of IC50 values for the inhibition of human PAR4 vs mouse PAR4. Red indicates the 2 compounds highlighted in panels (B–D). (B) Structures of exemplar compounds. (C) Concentration–response curves for human vs mouse PAR4. (D) Concentration–response curves for the inhibition of pharmacologically defined α-thrombin components for PAR1 (α-thrombin + BMS-3) vs PAR4 (α-thrombin + vorapaxar).
(§2) α-thrombin activates both PAR1 and PAR4, and the individual PAR1 or PAR4 component can be isolated pharmacologically. […] With 20 substitutions between PAR1 and PAR4 within 5 Å of the predicted 31 binding site, the basis for these selectivity differences is not known (Figure S4). As we continue to probe for a selective PAR4 antagonist, mutagenesis of individual residues will be conducted.
Compounds were screened for inhibition activity against human PAR4 using 100 nM γ-thrombin or 200 μM PAR4-AP in a single-point assay (10 μM test compound). Dose–response curves were conducted for active compounds. Active compounds were also assessed at a single concentration of 10 μM against other agonists, including the PAR4 component of α-thrombin (5 nM α-thrombin +1 μM vorapaxar), the PAR1 agonist peptide (20 μM SFFLRN), and the GPVI receptor agonist convulxin (3 nM).

thrombin = thrombin (Homo sapiens, UniProt P00734); assay: Fluorometric assay of in vitro thrombin activity; assay type: biochemical
Excerpt: The enamine-purchased 7 compound was confirmed using mass spectrometry and ^1H NMR (data not shown) and then was independently resynthesized at Vanderbilt University (VU).
(1 picture or pasted object on this page, not shown here)

PAR4 [2] = molecular target: T1, PAR4; assay: Schild analysis, progressive fold-shift against γ-thrombin in platelets; assay type: cell-based; parameters: endogenous in cells; host or cells: platelets; conditions: for mode of inhibition: against γ-thrombin activation; for Schild plot slope m: slope of linear regression, γ-thrombin, 20 min pretreatment
Description: A Schild analysis was performed on compounds 12 and 31 to determine the mode of inhibition of these compounds.
Figure 7 Schild analysis progressive fold-shift experiments. (A) Platelets were pretreated with increasing concentrations of each antagonist for 20 min prior to activation with increasing concentrations of γ-thrombin. (B) Logarithmic transformation of the dose ratio plotted versus the logarithm of compound concentration. m = slope of linear regression. TEXT PRINTED IN THE PICTURE: (B) 12: m = 0.99 | (D) 31: m = 0.95

PAR1 = molecular target: T2, PAR1 (Homo sapiens, UniProt P25116); assay: PAR1 component of α-thrombin activation (α-thrombin + BMS-3) in platelets; assay type: cell-based; conditions: read-out: PAR1 IC50 (Figure 6D)
T2 construct: endogenous in cells; host or cells: platelets
T2 sequence (P25116 22-425): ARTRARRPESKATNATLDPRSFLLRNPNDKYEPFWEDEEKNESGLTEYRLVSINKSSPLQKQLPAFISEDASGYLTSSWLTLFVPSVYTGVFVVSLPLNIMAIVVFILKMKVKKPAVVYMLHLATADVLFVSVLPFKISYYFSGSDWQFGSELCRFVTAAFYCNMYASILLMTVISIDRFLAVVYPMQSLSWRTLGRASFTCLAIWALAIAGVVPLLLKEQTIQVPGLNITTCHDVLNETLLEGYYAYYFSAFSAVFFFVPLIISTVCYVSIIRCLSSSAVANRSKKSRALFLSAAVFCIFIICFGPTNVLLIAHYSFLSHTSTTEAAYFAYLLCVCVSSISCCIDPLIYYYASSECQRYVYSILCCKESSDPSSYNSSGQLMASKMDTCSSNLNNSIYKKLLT
Excerpt: as §1, §2

Row | mode of inhibition (PAR4 [2]) | Schild plot slope m (PAR4 [2]) | IC50 (PAR4 [1]) [µM] | IC50 (PAR1) [µM] | Compound | inhibition of PAR4 component of α-thrombin activation (PAR4 [1]; 10 μM compound, 5 nM α-thrombin + 1 μM vorapaxar) | direct inhibition of thrombin enzymatic activity (thrombin)
1 |  |  |  |  | Cc1nc(NC(=O)c2cc(-c3ccccc3)n(-c3ccccc3)n2)n[nH]1 [Compound 7] | did inhibit | do not inhibition; also recorded: failed to directly inhibit
2 |  |  |  |  | Cc1cc(C(=O)Nc2n[nH]c(OC(F)F)n2)nn1-c1ccccc1 [Compound 9] |  | do not inhibition
3 | competitive | 0.99 | 0.149 | 5.81 | Cn1nc(C(=O)Nc2n[nH]c(-c3c(F)cccc3F)n2)cc1C1CC1 [Compound 12] |  | 
4 | competitive | 0.95 | 0.163 | 1.51 | O=C(Nc1n[nH]c(-c2ccc(F)cc2F)n1)c1nn(-c2ccccc2)c2c1CCCC2 [Compound 31] |  | 
